Patent US20250230193A1, “CYCLIC COMPOUND HAVING SELECTIVE KRAS INHIBITORY EFFECT ON HRAS AND NRAS” (CHUGAI SEIYAKU KABUSHIKI KAISHA, priority 2022, published 2025)
*1 amine or outer side, *2 acyl side, *3 side chain or, on linkers, in order; H or OH if unused. Where a SMILES comes first, the peptide text is derived from it. Bridges are numbered along the chain shown (N, C = ends). [ ]: non-standard residue; d: D form. The star is where a group is joined. hPhe(3,5-F2-4-CF3) = N[C@@H](CCc1cc(F)c(C(F)(F)F)c(F)c1)C(=O)O; NPrPhe(4-CF3) = CCCN[C@@H](Cc1ccc(C(F)(F)F)cc1)C(=O)O; X16 = O=C([C@@H](N[*:1])C1CC(F)(F)C1)[*:2]; NMeGly(cPent) = CN[C@H](C(=O)O)C1CCCC1; NMeD = CN[C@@H](CC(=O)O)C(=O)O; NMeL = CN[C@@H](CC(C)C)C(=O)O; Morpholide = C1CN(*)CCO1; Ac5c = NC1(C(=O)O)CCCC1; Aze = O=C(O)[C@@H]1CCN1; Sar = CNCC(=O)O

How the values were obtained:
[1] = target: GDP-bound NRAS wild-type protein (Homo sapiens, UniProt P01111); test: Binding to NRAS by surface plasmon resonance (SPR), Single Cycle Kinetics; conditions: for NRAS/KRAS (ratio of KD value with respect to NRAS to KD value with respect to KRAS): GDP-bound NRAS wild-type vs GDP-bound KRAS wild-type
[2] = target: GDP-bound HRAS wild-type protein (Homo sapiens, UniProt P01112); test: Binding to HRAS by surface plasmon resonance (SPR), Single Cycle Kinetics; conditions: for HRAS/KRAS (ratio of KD value with respect to HRAS to KD value with respect to KRAS): GDP-bound HRAS wild-type vs GDP-bound KRAS wild-type
Sequence of GDP-bound HRAS wild-type protein (P01112 whole entry): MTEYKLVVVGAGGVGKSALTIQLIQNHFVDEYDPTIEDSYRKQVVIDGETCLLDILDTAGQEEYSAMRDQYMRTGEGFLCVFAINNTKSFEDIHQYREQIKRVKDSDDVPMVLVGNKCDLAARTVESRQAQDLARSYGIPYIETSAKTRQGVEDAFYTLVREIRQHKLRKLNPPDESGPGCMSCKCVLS

Sequence of GDP-bound NRAS wild-type protein (P01111 whole entry): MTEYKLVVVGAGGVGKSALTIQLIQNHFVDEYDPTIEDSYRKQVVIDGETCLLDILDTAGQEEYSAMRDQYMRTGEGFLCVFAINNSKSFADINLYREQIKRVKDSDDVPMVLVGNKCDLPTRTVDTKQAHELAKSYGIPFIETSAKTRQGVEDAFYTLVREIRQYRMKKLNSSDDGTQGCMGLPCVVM

Row | SMILES | NRAS/KRAS (ratio of KD value with respect to NRAS to KD value with respect to KRAS) ([1]; SPR) | HRAS/KRAS (ratio of KD value with respect to HRAS to KD value with respect to KRAS) ([2]; SPR) | other results
1 | CCC[C@H]1C(=O)N[C@@H]([C@@H](C)CC)C(=O)N(C2CC2)CC(=O)N(C)[C@H]2C/C=C\CCN(C2=O)[C@@H](Cc2ccc(C(F)(F)F)cc2)C(=O)N(C)CC(=O)N[C@@H](CCc2ccc(C(F)(F)F)c(OC)c2)C(=O)N2C[C@@H](C)C[C@H]2C(=O)N(C)C2(CCC2)C(=O)N(C)[C@@H](C2CCCC2)C(=O)N(C)[C@H](C(=O)N(C)C)CC(=O)N1C [PP2360] | A (a compound having 10 or more and less than 20 is denoted as A) | B (a compound having 3 or more and less than 10 is denoted as B) | 
2 | CCO[C@@H]1C[C@H]2C(=O)NC3(CCC3)C(=O)N(C)[C@@H](C3CCCC3)C(=O)N(C)[C@H](C(=O)N(C)C)CC(=O)N(C)[C@@H](CC3CCCC3)C(=O)N[C@@H]([C@@H](C)CC)C(=O)N(C)CC(=O)N(C)[C@H]3C/C=C\CCN(C3=O)[C@@H](Cc3ccc(C(F)(F)F)cc3)C(=O)N(C)CC(=O)N[C@@H](CCc3ccc(C(F)(F)F)c(Cl)c3)C(=O)N2C1 [PP2842] |  |  | NRAS/KRAS (ratio of KD value with respect to GDP-bound NRAS wild-type protein to KD value with respect to KRAS) ([1]; class symbols): A (a compound having 10 or more and less than 20 is denoted as A); HRAS/KRAS (ratio of KD value with respect to GDP-bound HRAS wild-type protein to KD value with respect to KRAS) ([2]; class symbols): B (a compound having 3 or more and less than 10 is denoted as B)
3 | CCCN1C(=O)CN(C)C(=O)[C@@H]2CCN2C(=O)[C@H](C2CC(F)(F)C2)NC(=O)[C@H](CC(C)C)N(C)C(=O)C[C@@H](C(=O)N2CCOCC2)N(C)C(=O)[C@H](C2CCCC2)N(C)C(=O)C2(CCCC2)NC(=O)[C@@H]2CCCN2C(=O)[C@H](CCc2cc(F)c(C(F)(F)F)c(F)c2)NC(=O)CN(C)C(=O)[C@@H]1Cc1ccc(C(F)(F)F)cc1 [PP0786] ([NMeL][X16][Aze][Sar][NPrPhe(4-CF3)][Sar][hPhe(3,5-F2-4-CF3)]P[Ac5c][NMeGly(cPent)][NMeD]-Morpholide; lactam N-11) |  |  | NRAS/KRAS (ratio of KD value with respect to GDP-bound NRAS wild-type protein to KD value with respect to KRAS) ([1]; SPR): B (a compound having 3 or more and less than 10 is denoted as B); HRAS/KRAS (ratio of KD value with respect to GDP-bound HRAS wild-type protein to KD value with respect to KRAS) ([2]; SPR): B (a compound having 3 or more and less than 10 is denoted as B)
4 | CCO[C@@H]1C[C@H]2C(=O)NC3(CCC3)C(=O)N(C)[C@@H](C3CCCC3)C(=O)N(C)[C@H](C(=O)N3CCOCC3)CC(=O)N(C)[C@@H](CC)C(=O)N[C@@H]([C@@H](C)CC)C(=O)N(C)CC(=O)N(C)[C@H]3CCCCCN(C3=O)[C@@H](Cc3ccc(F)cc3)C(=O)N(C)CC(=O)N[C@@H](CCc3cc(F)c(C(F)(F)F)c(F)c3)C(=O)N2C1 [PP1176] |  |  | NRAS/KRAS (ratio of KD value with respect to NRAS to KD value with respect to KRAS) ([1]; KD ratio, SPR): B (a compound having 3 or more and less than 10 is denoted as B); HRAS/KRAS (ratio of KD value with respect to HRAS to KD value with respect to KRAS) ([2]; KD ratio, SPR): B (a compound having 3 or more and less than 10 is denoted as B)
5 | CCCOC[C@H]1C(=O)N[C@@H]([C@@H](C)CC)C(=O)N(C)CC(=O)N(C)[C@H]2C/C=C\CCN(C2=O)[C@@H](CC2CCC(F)(F)CC2)C(=O)N(C)CC(=O)N[C@@H](CCc2ccc(C(F)(F)F)c(OC)c2)C(=O)N2C[C@@H](C)C[C@H]2C(=O)N(C)C2(CCC2)C(=O)N(C)[C@@H](C2CCCC2)C(=O)N(C)[C@H](C(=O)N(C)C)CC(=O)N1C [PP2377] | A (a compound having 10 or more and less than 20 is denoted as A) | A (a compound having 10 or more and less than 20 is denoted as A) | 
6 | CCC[C@H]1C(=O)N[C@@H]([C@@H](C)CC)C(=O)N(C)CC(=O)N(C)[C@H]2C/C=C\CCN(C2=O)[C@@H](Cc2ccc(C)cc2)C(=O)N(C)CC(=O)N[C@@H](CCc2ccc(C(F)(F)F)c(OC)c2)C(=O)N2C[C@H](OCC)C[C@H]2C(=O)NC2(CC(C)(C)C2)C(=O)N(C)[C@@H](CC(C)(C)C)C(=O)N(C)[C@H](C(=O)N(C)C)CC(=O)N1C [PP2710] |  |  | NRAS/KRAS (ratio of KD value with respect to GDP-bound NRAS wild-type protein to KD value with respect to KRAS) ([1]; class symbols): B (a compound having 3 or more and less than 10 is denoted as B); HRAS/KRAS (ratio of KD value with respect to GDP-bound HRAS wild-type protein to KD value with respect to KRAS) ([2]; class symbols): B (a compound having 3 or more and less than 10 is denoted as B)
7 | CCOC[C@H]1C(=O)N[C@@H]([C@@H](C)CC)C(=O)N(C2CC2)CC(=O)N(C)[C@H]2C/C=C\CCN(C2=O)[C@@H](CC2CCC(F)(F)CC2)C(=O)N(C)CC(=O)N[C@@H](CCc2ccc(C(F)(F)F)c(OC)c2)C(=O)N2C[C@H](OCC)C[C@H]2C(=O)N(C)C2(CCC2)C(=O)N(C)[C@@H](C(CC)CC)C(=O)N(C)[C@H](C(=O)N(C)C)CC(=O)N1C [PP2351] | A (a compound having 10 or more and less than 20 is denoted as A) | A (a compound having 10 or more and less than 20 is denoted as A) | 
8 | CCC[C@H]1C(=O)N[C@@H]([C@@H](C)CC)C(=O)N(C2CC2)CC(=O)N(C)[C@H]2C/C=C\CCN(C2=O)[C@@H](CC2CCCCC2)C(=O)N(C)CC(=O)N[C@@H](CCc2ccc(C(F)(F)F)c(OC)c2)C(=O)N2C[C@H](OCC)C[C@H]2C(=O)N(C)C2(CCC2)C(=O)N(C)[C@@H](C2CCCC2)C(=O)N(C)[C@H](C(=O)N(C)C)CC(=O)N1C [PP2340] | B (a compound having 3 or more and less than 10 is denoted as B) | B (a compound having 3 or more and less than 10 is denoted as B) | 
